“And” between values parts separate entries of the source, which are not always exact repeats. Equal entries are not always repeated.
Tests used:
[1] = system: T. cruzi (Tulahuen strain); experiment: In vitro activity against other kinetoplastid parasites; assay type: cell-based; conditions: Trypanosoma cruzi
[2] = system: L. infantum; experiment: Promastigote back-transformation assay on organs of treated hamsters; assay type: in vivo, golden hamsters; conditions: for parasite score, Bone-marrow / parasite score, Liver / parasite score, Spleen: 5 days, individual animals 1-5
Description: Female golden hamsters (5 per treatment group) were infected through intracardiac administration of 2x10^7 L. infantum amastigotes obtained from the spleen of a heavily infected donor hamster. […] After 5-day treatment period, followed by a 10-day wash out period, animals were sacrificed, and parasites burden assessed in the three target organs (liver, spleen, and bone-marrow). For this assessment, organs of individual animals were weighed, except for bone-marrow thus only providing a semi-quantitative evaluation only. Impression smears were Giemsa-stained for microscopic evaluation of amastigote burden, expressed as LDU (= mean number of amastigotes/cell × organ weight in mg) and the results were expressed as a percentage reduction compared to the burdens in the control group (vehicle as placebo). For evaluating the presence of viable residual burden after treatment, a promastigote back-transformation assay was conducted. This consisted of the incubation at ambient temperature of aseptically collected pieces of spleen or liver tissue in 1 mL of promastigote back-transformation medium in 24-well plates. For the bone-marrow, resected femurs were flushed with 1 mL medium. The medium consists of HOMEM pH 6.0 prepared as described elsewhere ([5]) with 10% fetal bovine serum (Gibco), 2.5% penicillin/streptomycin and 1% gentamicin (Merck). A qualitative assessment of the presence of promastigotes was made after 3 and 5 days of incubation and a score was attributed (+, ++ or +++) based on parasite density in the positive wells.
Supplementary Materials and methods
Promastigote transformation assay
For evaluating the presence of viable residual burdens after treatment, a promastigote back-transformation assay is conducted. This test consists of the incubation at ambient temperature of aseptically collected pieces of spleen or liver tissue in 1 mL of promastigote back-transformation medium in 24-well plates. For the bone-marrow, resected femurs are flushed with 1 mL medium. The medium consists of HOMEM pH 6.0 prepared as described elsewhere (1) with 10% fetal bovine serum (Gibco) and 2.5% penicillin/streptomycin and 1% gentamicin (Merck). A qualitative assessment of the presence of promastigotes is made after 3 and 5 days of incubation and a score is attributed (+, ++ or +++) based on parasite density in the positive […]
Supplementary Information on Tables
L. infantum MHOM/FR/96/LEM3323 Cl4 was originally obtained from a French HIV-positive patient (Languedoc area in Southern France) and provided by Dr. Laurence Lachaud of the Centre National de Référence des Leishmanioses (CNRL), Montpellier, France. The miltefosine and paromomycin resistant lines (LEM3323 Cl4 MIL-R and PMM-R) were obtained by successive in vitro selection cycles on intracellular amastigotes (2, 3)

[3] = In vitro cytotoxicity assay; assay type: cell-based; conditions: human, HepG2 human hepatocellular carcinoma cells
[4] = molecular target: CaV1.2 (Homo sapiens, UniProt Q13936); experiment: in vitro
Chain of CaV1.2 (Q13936 whole entry): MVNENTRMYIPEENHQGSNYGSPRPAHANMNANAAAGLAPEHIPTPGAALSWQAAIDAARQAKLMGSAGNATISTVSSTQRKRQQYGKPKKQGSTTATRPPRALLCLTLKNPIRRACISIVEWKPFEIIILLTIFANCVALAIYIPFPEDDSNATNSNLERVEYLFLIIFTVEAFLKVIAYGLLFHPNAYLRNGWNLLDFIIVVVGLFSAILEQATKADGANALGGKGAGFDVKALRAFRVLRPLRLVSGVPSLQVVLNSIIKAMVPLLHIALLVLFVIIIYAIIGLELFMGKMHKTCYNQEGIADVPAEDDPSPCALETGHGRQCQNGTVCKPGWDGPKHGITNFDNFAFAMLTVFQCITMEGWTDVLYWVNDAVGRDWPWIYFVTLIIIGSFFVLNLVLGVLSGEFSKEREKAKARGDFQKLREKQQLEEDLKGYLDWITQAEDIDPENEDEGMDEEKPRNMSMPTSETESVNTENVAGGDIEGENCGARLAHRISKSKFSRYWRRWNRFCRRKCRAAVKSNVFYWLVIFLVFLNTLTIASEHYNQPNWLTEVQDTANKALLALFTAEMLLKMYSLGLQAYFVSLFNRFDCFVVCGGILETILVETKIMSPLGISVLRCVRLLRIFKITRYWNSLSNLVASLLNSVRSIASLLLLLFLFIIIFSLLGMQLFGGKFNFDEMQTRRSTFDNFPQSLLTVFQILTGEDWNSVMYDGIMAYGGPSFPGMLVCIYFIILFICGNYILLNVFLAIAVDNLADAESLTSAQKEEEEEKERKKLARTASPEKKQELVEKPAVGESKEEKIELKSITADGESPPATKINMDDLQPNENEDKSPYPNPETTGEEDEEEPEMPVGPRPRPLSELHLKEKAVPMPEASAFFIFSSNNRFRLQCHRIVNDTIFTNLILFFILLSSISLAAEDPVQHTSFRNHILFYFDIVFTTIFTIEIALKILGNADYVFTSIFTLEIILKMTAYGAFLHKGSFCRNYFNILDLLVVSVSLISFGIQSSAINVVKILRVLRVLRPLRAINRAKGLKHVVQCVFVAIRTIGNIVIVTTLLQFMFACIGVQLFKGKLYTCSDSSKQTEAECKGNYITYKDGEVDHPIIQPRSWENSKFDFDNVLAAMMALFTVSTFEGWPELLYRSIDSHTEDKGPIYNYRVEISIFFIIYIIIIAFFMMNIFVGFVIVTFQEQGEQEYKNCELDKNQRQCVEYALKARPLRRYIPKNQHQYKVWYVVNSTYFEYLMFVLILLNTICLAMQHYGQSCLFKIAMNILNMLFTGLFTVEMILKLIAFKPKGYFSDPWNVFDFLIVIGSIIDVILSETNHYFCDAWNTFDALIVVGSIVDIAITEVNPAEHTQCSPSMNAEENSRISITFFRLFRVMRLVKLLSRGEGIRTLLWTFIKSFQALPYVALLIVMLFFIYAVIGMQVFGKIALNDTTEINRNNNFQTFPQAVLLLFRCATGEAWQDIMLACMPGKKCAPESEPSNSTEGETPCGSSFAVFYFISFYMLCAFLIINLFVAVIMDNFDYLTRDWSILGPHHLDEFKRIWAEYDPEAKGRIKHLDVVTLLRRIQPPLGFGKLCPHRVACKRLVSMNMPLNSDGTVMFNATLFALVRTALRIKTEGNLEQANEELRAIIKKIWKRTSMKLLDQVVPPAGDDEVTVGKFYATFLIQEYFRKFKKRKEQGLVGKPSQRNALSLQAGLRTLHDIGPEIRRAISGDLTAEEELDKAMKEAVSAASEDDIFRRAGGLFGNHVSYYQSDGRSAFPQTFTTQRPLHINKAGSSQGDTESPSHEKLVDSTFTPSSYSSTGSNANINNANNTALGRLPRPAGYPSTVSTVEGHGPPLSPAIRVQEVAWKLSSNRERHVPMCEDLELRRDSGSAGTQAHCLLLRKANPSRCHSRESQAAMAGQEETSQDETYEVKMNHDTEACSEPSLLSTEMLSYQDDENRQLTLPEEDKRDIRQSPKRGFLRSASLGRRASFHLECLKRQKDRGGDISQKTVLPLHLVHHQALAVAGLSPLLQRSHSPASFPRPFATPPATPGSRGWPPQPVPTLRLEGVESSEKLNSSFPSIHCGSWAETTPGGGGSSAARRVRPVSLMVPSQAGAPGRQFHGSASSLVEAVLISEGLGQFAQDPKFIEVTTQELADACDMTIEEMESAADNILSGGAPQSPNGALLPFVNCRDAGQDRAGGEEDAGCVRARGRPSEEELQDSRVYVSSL
Chain of CaV1.2 (Q08289 whole entry partner): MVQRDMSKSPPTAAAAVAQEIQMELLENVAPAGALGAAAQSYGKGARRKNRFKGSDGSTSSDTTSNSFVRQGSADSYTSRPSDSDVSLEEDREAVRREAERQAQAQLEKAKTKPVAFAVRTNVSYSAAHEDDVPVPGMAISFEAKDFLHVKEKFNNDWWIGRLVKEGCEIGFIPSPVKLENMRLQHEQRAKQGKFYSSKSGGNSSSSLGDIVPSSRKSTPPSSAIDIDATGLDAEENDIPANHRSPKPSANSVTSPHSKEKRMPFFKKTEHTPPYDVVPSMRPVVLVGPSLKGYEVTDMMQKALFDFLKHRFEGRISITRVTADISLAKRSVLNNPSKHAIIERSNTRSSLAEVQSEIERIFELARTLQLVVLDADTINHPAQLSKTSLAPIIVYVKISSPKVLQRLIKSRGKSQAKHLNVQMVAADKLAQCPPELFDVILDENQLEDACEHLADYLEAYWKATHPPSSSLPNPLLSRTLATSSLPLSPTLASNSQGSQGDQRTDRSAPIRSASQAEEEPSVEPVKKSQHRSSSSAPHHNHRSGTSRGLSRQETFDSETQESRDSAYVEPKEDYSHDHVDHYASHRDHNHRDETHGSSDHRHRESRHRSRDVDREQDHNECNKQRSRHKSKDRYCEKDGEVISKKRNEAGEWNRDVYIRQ

[5] = molecular target: hERG (Homo sapiens, UniProt Q12809); experiment: In vitro pharmacology panel (Eurofins); design: purchased Eurofins (Cerep/DiscoverX SafetyScreen44 in vitro pharmacology panel); conditions: human hERG potassium channel, [3H]dofetilide binding assay, probe [3H] Dofetilide, read-out: activity (% of DMSO control)
Chain of hERG (Q12809 whole entry): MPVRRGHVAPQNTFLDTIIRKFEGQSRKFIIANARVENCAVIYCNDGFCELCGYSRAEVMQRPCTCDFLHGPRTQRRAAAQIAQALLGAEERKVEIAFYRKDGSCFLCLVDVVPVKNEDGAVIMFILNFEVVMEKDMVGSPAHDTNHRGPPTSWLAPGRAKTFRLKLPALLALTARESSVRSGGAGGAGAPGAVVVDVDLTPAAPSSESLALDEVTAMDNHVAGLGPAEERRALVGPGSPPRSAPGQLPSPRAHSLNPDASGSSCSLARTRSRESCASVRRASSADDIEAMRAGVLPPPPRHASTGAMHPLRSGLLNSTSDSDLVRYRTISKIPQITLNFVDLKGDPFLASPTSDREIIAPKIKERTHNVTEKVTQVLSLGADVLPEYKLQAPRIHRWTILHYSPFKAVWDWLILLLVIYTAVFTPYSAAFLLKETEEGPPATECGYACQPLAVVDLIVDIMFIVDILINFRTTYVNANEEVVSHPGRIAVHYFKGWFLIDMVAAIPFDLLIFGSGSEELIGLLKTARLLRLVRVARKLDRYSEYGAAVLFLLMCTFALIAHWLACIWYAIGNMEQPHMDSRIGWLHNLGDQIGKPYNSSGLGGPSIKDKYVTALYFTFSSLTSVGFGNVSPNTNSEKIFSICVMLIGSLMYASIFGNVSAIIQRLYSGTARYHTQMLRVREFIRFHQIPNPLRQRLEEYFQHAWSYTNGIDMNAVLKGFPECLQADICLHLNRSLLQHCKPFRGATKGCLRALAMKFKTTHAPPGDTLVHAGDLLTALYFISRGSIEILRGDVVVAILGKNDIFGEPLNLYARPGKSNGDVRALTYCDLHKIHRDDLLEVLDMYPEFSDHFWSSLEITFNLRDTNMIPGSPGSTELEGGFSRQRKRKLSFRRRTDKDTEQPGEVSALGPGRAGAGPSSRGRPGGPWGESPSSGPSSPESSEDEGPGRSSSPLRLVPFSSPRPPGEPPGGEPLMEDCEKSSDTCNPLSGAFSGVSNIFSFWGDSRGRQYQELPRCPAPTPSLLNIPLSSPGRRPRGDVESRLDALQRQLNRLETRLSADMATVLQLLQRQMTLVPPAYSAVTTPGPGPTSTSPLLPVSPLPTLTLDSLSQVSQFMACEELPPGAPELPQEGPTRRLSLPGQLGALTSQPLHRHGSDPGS
Description: Listed values represent the percent change relative to the DMSO control activity. When an IC50 had to be determined, eight different concentrations were included. All values are the mean of assay readout duplicates.

## Cc1[nH]c2nc(N)nc(C)c2c1-c1ccc(C#N)c2c1OCO2 [DNDI-6174]
[1]
  EC50: < 0.005 µM
[2]; 3.125 mg/kg bid
  parasite score, Bone-marrow: ++
  parasite score, Liver: + (3×) and - (2×)
  parasite score, Spleen: ++
[2]; 12.5 mg/kg bid
  parasite score, Bone-marrow: - and +
  parasite score, Liver: -
  parasite score, Spleen: - and +
[2]; 12.5 mg/kg qd
  parasite score, Bone-marrow: + (3×) and ++ (2×)
  parasite score, Liver: + (3×) and - (2×)
  parasite score, Spleen: ++ (4×) and +
[2]; 25 mg/kg qd
  parasite score, Bone-marrow: + and - (4×)
  parasite score, Liver: - (4×) and +
  parasite score, Spleen: -
[2]; 50 mg/kg qd
  parasite score, Bone-marrow: - (4×) and +
  parasite score, Liver: - (4×) and +
  parasite score, Spleen: - (4×) and +
[2]; DNDI-6174 treated animals
  emergence of viable promastigotes from recovered organs, in words: almost all the organs recovered proved to be negative in culture
[3]
  CC50: > 64 µM
[4]
  inhibition at 100 µM: 43%
[5]
  activity at 10 µM: 94.2%

Source: paper PMC7615677 (Science translational medicine, 2023)
